A short description of data set [1]: Solubility by the shake-flask method. The data set is classed as physicochemical. To be noted: for solubility at 24 h: universal buffer.
Method: A universal buffer composed of 75 mM trifluoroacetic acid, 25 mM acetic acid, and 25 mM ethylenediamine, adjusted with 1M sodium hydroxide up to pH 7.5, was used (ionic strength, I = 0.1 M). Samples were prepared by adding a weighted amount of solid (enough to obtain saturated solutions) to 2 mL of the buffered solution. After this, solutions were shaken at a controlled temperature (25.0 ± 0.2 °C) for 24 h, but, after 4 h of agitation, the pH was checked and, if necessary, readjusted to the initial value with small amounts of 1 M hydrochloric acid or 1 M sodium hydroxide solution. After the 24 h stirring, samples were left to stand for equilibration for 24 more hours [32, 33, 34]. The pH was measured and phases separated by centrifugation in a Rotanta 460RS centrifuge from Hettich Lab Technology (Tuttlingen, Germany), at a controlled temperature (25 °C) and 3500 rpm for 30 min.
The remaining solid was dried under vacuum for 30 min and stored at 4 °C until XRPD analysis. […] A Shimadzu (Kyoto, Japan) liquid chromatograph, equipped with two LC-10AD pumps and a SPD-10AV detector, was used. Temperature was controlled at 25.0 ± 0.1 °C with a CTO-10AS column oven. The column was a Symmetry C18, with 5 μm particle size and dimensions of 4.6 × 150 mm from Waters (Milford, MA, USA). Mobile phase was composed of 20 mM phosphate buffer at pH 7 (A) and acetonitrile (B). Elution was in gradient mode (time (min), %B: 0,3; 1,3; 5,25; 10,25; 12,3; 15,3). […] To quantify, six standard solutions were prepared in the linear range (5–60 mgL^−1 for both compounds). Standards were dissolved in an acetonitrile/water mixture at a proportion of 25/75 (v/v). In a first attempt, saturated supernatants were injected directly, and, when necessary, they were appropriately diluted in water to ensure that they fit within the range of calibration.
Data set [2] in a line: pKa determination by potentiometric titration. The data set is classed as physicochemical. Particulars: for pKa: 0.15 M KCl aqueous solution. How it is done: The sample was pre-alkalinized to pH 12 with 0.5 M standardized KOH. Then, it was titrated with standardized 0.5 M HCl. All titrations were carried out at 0.15 M ionic strength and a temperature of 25 °C, under a nitrogen atmosphere. […] The Debye–Hückel equation was used to obtain the thermodynamic pKa values.

Data set [3] in a line: Intrinsic dissolution rate, small-scale dissolution assay at single GIT pH values. To be noted: for % Dissolved at t = 30 min / Dissolution Rate: SD in brackets; for Dissolution Rate: fitting of Equation (1), kdS. The data set is classed as physicochemical. How it is done: Dissolution tests were performed with a small-scale dissolution assay installed in the GlpKaTM titrator. […] Then, 1.5 mL of 0.125 M acetate-phosphate buffer at pH 1.6 was introduced into the vial without wetting the tablet surface. […] The final volume was 15 mL. UV-visible absorption spectra were recorded every 30 s with a fiber-optic probe immersed in the solution. […] Spectral regions where the signal was saturated (A > 1.5) were discarded. Dissolution rate was obtained through the fitting of the first-order Noyes-Whitney exponential equation to the data:(1) [[…]0)) In this equation, [X]t is the weight (g) of compound in solution at a given time (min); […] Dissolution rate is calculated through a refinement process in which S, kd and t0 optimal values are obtained by minimizing the root mean square deviation between the modeled concentrations and the measured ones.

The nature of data set [4]: pH of saturated Norfloxacin solutions in dissolution media (pHx=0 effect test). It is filed as physicochemical. Particulars: for pH of saturated solution after 24 h: agitation. Here is the method:
However, instead of adding a Norfloxacin tablet, the powder was directly weighted into the vials until saturated solutions of Norfloxacin were obtained. Then, the solutions were allowed to stand under agitation at 25 °C for 24 h. After this, the pH of the solutions was measured again. […] This effect is more evident for the API dissolution than for the cocrystal because the amount of API released in the cocrystal is lower compared to the pure API.

On the set-up of data set [5]: method as in doi:10.1016/0378-5173(90)90130-V, PMID 16307530. Particulars: cited from earlier work.
Data set [6] in a line: 4-sector pH dissolution test (pH stepped from 2.0 to 7.4). The data set is classed as physicochemical. Particulars: 4-sector test. Here is the method:
To perform the 4-sector dissolution rate determinations, the same procedure was followed, but, after adjusting the initial pH to 2.0 and monitoring dissolution for 30 min at this pH, the pH was automatically raised to the next value by addition of KOH. Then, dissolution was monitored again for 30 more minutes. This stepping procedure was repeated until dissolution in the four sectors was covered.

[7] abbreviates: water, 25 °C and 0 ionic strength, potentiometry, given as ref 37 (authors' unpublished work), read-out: pKa (first).

Consider three compounds from publication PMC8778133 (Pharmaceutics, 2021).

≈ marks a conversion by molar mass, not a printed value. Where “and” joins values, the source holds several entries; their conditions need not be identical. Equal values may be shown once. Read-outs that look alike come from different tables or passages of the source.

Usually solubility stands for how much of the substance goes into solution per volume. Usually pKa stands for the negative logarithm of the acid dissociation constant.

Take `CCn1cc(C(=O)O)c(=O)c2cc(F)c(N3CCNCC3)cc21` [Norfloxacin]: the “solid phase obtained after the shake-flask experiments (XRPD)” value in data set [1] (aqueous buffer, 24 h stirring + 24 h standing, 25 °C) is reported as “tetrahydrate”. In data set [1] (calculated from shake-flask solubility and Equation (7), pKa' at I = 0.1 M, corresponds to tetrahydrate form), the “intrinsic solubility of the zwitterionic form (S0)” value was 319 ± 19 µg/mL. Moreover, the solubility at 24 h is 394 ± 18 µg/mL (≈ 1230 µM) in data set [1] (pH 7.25, shake-flask, 25 °C, I = 0.1 M, final pH 7.25, n = 3, solid transformed to tetrahydrate, read-out: solubility); 320 ± 20 µg/mL (≈ 1000 µM) in data set [1] (pH 7.5, calculated from shake-flask solubility and Equation (7), pKa' at I = 0.1 M, corresponds to tetrahydrate form, read-out: intrinsic solubility of the zwitterionic form (S0)). The pKa in data set [2] (setting [7]) worked out at 6.35 ± 0.04. Besides, the “percentage of compound in the zwitterionic form” value in data set [2] (pH 5.5, species distribution (Figure S12)) was “around 12%”. Also, in data set [2] (pH 7.5, species distribution from pKa values (Figure S12)), the “maximum percentage of the zwitterionic form” value was “around 90%”. For the same compound, in data set [2] (water, 25 °C and 0 ionic strength, potentiometry, given as ref 37 (authors' unpublished work)), the “pKa (second)” value was 8.80 ± 0.04. The “Final Solid Form” value in data set [3] (after dissolution at pH 2.0), in data set [3] (after dissolution at pH 4.0), in data set [3] (after dissolution at pH 5.5) and in data set [3] (after dissolution at pH 7.4) was “Tetrahydrate” throughout. Also, the “% Dissolved at t = 30 min” value in data set [3] (pH 2.0) was 100% and 101.2 (6.3) %; in data set [3] (pH 2.0, listed as API), “complete”; in data set [3] (pH 4.0), 71% and 71.3 (6.9) %; in data set [3] (pH 5.5) it was 23% and 23.0 (5.2) %; in data set [3] (pH 7.4), 9.4 (1.0) %; in data set [3] (pH 7.4, listed as API), 7%. In addition, the “Dissolution Rate” value in data set [3] (pH 2.0) is recorded as 4.16 (0.73) μg min^−1; in data set [3] (pH 4.0), 0.79 (0.03) μg min^−1; in data set [3] (pH 5.5), 0.19 (0.02) μg min^−1; in data set [3] (pH 7.4), 0.06 (0.01) μg min^−1. Further, the “pH of saturated solution after 24 h” value in data set [4] (dissolution medium initially at pH 4.0, 25 °C) was 5.8; in data set [4] (dissolution medium initially at pH 5.5, 25 °C), 6.2; in data set [4] (dissolution medium initially at pH 7.4, 25 °C), 7.4. In addition, the “positive pH increment” value in data set [4] (initial pH 4.0) turned out to be 1.8 units; in data set [4] (initial pH 5.5), 0.7 units; in data set [4] (initial pH 7.4), 0 units. Besides, the oral bioavailability in data set [5] is listed as ~ 40%.

Regarding `Oc1cccc(O)c1` [Resorcinol, resorcinol], the pKa in data set [2] (setting [7]) is 9.47 ± 0.02; in data set [2] (water, 25 °C and 0 ionic strength, potentiometry, given as ref 37 (authors' unpublished work), read-out: pKa (second)), 11.6 ± 0.04.

For `CCn1cc(C(=O)O)c(=O)c2cc(F)c(N3CCNCC3)cc21.Oc1cccc(O)c1` [Norfloxacin–resorcinol cocrystal], the “Final Solid Form” value in data set [3] (after dissolution at pH 2.0), in data set [3] (after dissolution at pH 4.0), in data set [3] (after dissolution at pH 5.5) and in data set [3] (after dissolution at pH 7.4) was “Monohydrate” in each case. In addition, the “% Dissolved at t = 30 min” value is given as 94.4 (1.1) % in data set [3] (pH 2.0); 91.2 (0.9) % in data set [3] (pH 4.0); 48.0 (12.5) % in data set [3] (pH 5.5); 48% in data set [3] (pH 5.5, listed as cocrystal); 9.6 (1.0) % in data set [3] (pH 7.4); 7% in data set [3] (pH 7.4, listed as cocrystal). The “Dissolution Rate” value was 2.53 (1.63) μg min^−1 in data set [3] (pH 2.0), 0.70 (0.15) μg min^−1 in data set [3] (pH 4.0), 0.33 (0.04) μg min^−1 in data set [3] (pH 5.5) and 0.19 (0.10) μg min^−1 in data set [3] (pH 7.4). Also, the “percentage of the API remaining in the solution” value in data set [6] (after pH increased to 7.4 (sudden precipitation)) turned out to be 80%. For the same compound, in data set [6] (from pH 2.0 to pH 5.5, 30 min at each pH), the “percentage of Norfloxacin in the solution” value is on record as approximately 90%. The “dissolution in the first sector” value in data set [6] (pH 2.0, 30 min) was “almost complete dissolution”.
